Measured values published in patent US11607384B2, “Lipid emulsified drug delivery systems for chemoprevention and treatment” (WESTERN UNIVERSITY OF HEALTH SCIENCES, priority 2017, dated 2023).

Columns and labels:
[1] = test system: MIA-PaCa-2 pancreatic cancer cells; test: Colorimetric MTS cytotoxicity assay in MIA-PaCa-2 cells; assay type: cell-based, Human; details: for IC50: MIA-PaCa-2, 72 h
Protocol: (§1) Human PC cells MIA PaCa-2 and Panc-1 were obtained from American type culture collection (ATCC) (Rockville, Md.). Cells were maintained in Dulbecco's modified Eagle's medium (DMEM) containing 10% fetal bovine serum (FBS) obtained from ATCC. Cells were cultured at 37° C. in a humidified atmosphere of 5% CO2 and 95% air.
(§2) The cell viability assay was performed according to manufacturer's protocol with the Promega CellTitre 96 Aqueous MTS reagent (Madison, Wis., USA). Briefly, 7.5×10^3 cells were seeded in 96-well plates and incubated overnight. […] At the end of the incubation period, the growth medium was removed followed by addition of 100 μl media consisting of 20% MTS and 1% of phenazine methosulfate (PMS) and the mixture was incubated for 2 h at 37° C. MTS is bio-reduced by the cells into formazan which could be measured using a microplate reader at 490 nm. Thus, the quantity of formazan product measured by absorbance is directly proportional to the number of living cells in culture. IC50 values were determined using Graph Pad Prism software (San Diego, Calif., USA). All analysis was performed in triplicate and replicated.
A study to determine IC50 (inhibitory concentration to kill 50% of cancer cells) in in vitro cell line cultures of pancreatic cancer cell line was performed.
The cell viability assay was performed according to the manufacturer's protocol with the Promega CellTitre 96 Aqueous MTS reagent (Madison, Wis., USA). Briefly, 7.5×10^3 cells were seeded in 96-well plates and were incubated overnight. The cells were treated with different concentrations of treatment groups followed by incubation for a period of 72 hours. At the end of the incubation period, the growth medium was removed followed by addition of 100 μl media consisting of 20% MTS and 1% of phenazine methosulfate (PMS) and the mixture was incubated for 2 h at 37° C. MTS is bio-reduced by the cells into formazan which could be measured using a microplate reader at 490 nm. Thus, the quantity of formazan measured by the absorbance is directly proportional to the number of living cells in culture. […] All analysis was performed in triplicate.
(§3) The cytotoxicity of the various treatment groups were evaluated using a colorimetric MTS assay. The cell viability assay was performed according to the manufacturer's protocol with the Promega CellTitre 96 Aqueous MTS reagent (Madison, Wis., USA). Briefly, 7.5×10^3 cells were seeded in 96-well plates and were incubated overnight. The cells were treated with different concentrations of treatment groups followed by incubation for a period of 72 hours. At the end of the incubation period, the growth medium was removed followed by addition of 100 μl media consisting of 20% MTS and 1% of phenazine methosulfate (PMS) and the mixture was incubated for 2 h at 37° C. MTS is bio-reduced by the cells into formazan which could be measured using a microplate reader at 490 nm. Thus, the quantity of formazan measured by the absorbance is directly proportional to the number of living cells in culture.
Cytotoxicity was evaluated in Mia PaCa 2 pancreatic cancer cells using the colorimetric MTS assay, as described above.
A study to determine IC50 in in vitro cell line cultures of pancreatic cancer cell lines was performed. […] Cytotoxicity was evaluated using the colorometric MTS assay. The cell viability assay was performed according to the manufacturer's protocol with the Promega Cell Titre 96 Aqueous MTS reagent (Madison, Wis., USA). Briefly, 7.5×10^6 cells were seeded in 96-well plates and were incubated overnight. The cells were treated with different concentrations of treatment groups followed by incubation for a period of 72 h.

[2] = test system: Panc-1 pancreatic cancer cells; test: Colorimetric MTS cytotoxicity assay in Panc-1 cells; assay type: cell-based, Human; details: Panc-1, 72 h
Protocol: as §1, §2, §3
The cell viability assay was performed according to the manufacturer's protocol with the Promega Cell Titre 96 Aqueous MTS reagent (Madison, Wis., USA). Briefly, 7.5×10^3 cells were seeded in 96-well plates and were incubated overnight. The cells were treated with different concentrations of treatment groups followed by incubation for a period of 72 h. At the end of the incubation period, the growth medium was removed followed by addition of 100 μl media consisting of 20% MTS and 1% of phenazine methosulfate (PMS) and the mixture was incubated for 2 h at 37° C. MTS is bio-reduced by the cells into formazan which could be measured using a microplate reader at 490 nm. Thus, the quantity of formazan measured by the absorbance is directly proportional to the number of living cells in culture.
A study to determine IC50 in in vitro cell line cultures of pancreatic cancer cell lines was performed. […] Cytotoxicity was evaluated using the colorometric MTS assay. […] MTS is bio-reduced by the cells into formazan which could be measured using a microplate reader at 490 nm. Thus, the quantity of formazan measured by the absorbance is directly proportional to the number of living cells in culture.
A study to determine IC50 in in vitro cell line cultures of pancreatic cancer cell lines was performed. […] Cytotoxicity was evaluated using the colorometric MTS assay.

CCOC(=O)N1CCC(=C2c3ccc(Cl)cc3CCc3cccnc32)CC1 [LOR (free), Loratadine]
IC50 ([1]; Homo sapiens, Table 4, MTS): 326 µM
IC50 ([2]; Homo sapiens, Table 9, MTS): 357 µM

Nc1ccn([C@@H]2O[C@H](CO)[C@@H](O)C2(F)F)c(=O)n1 [Gemcitabine]
IC50 ([1]; Homo sapiens, Table 14, varied Gemcitabine, fixed LOR (free or system 2) 125 μM, Sulforaphane 5 μM): 692 µM
IC50 ([2]; Homo sapiens, Table 16, varied Gemcitabine, fixed LOR (free or system 2) 125 μM, Sulforaphane 5 μM): 539 µM

CC(=O)O[C@H]1C(=O)[C@@]2(C)[C@H]([C@H](OC(=O)c3ccccc3)[C@]3(O)C[C@H](OC(=O)[C@H](O)[C@@H](NC(=O)c4ccccc4)c4ccccc4)C(C)=C1C3(C)C)[C@]1(OC(C)=O)CO[C@@H]1C[C@@H]2O [Paclitaxel]
IC50 ([1]; Homo sapiens, Table 18, varied Paclitaxel, fixed LOR (free or system 2) 125 μM, Sulforaphane 5 μM): 1.96 µM
IC50 ([2]; Homo sapiens, Table 20, varied Paclitaxel, fixed LOR (free or system 2) 125 μM, Sulforaphane 5 μM): 2.33 µM

C[S+]([O-])CCCCN=C=S (centres unmarked) [Sulforaphane (free), Sulforaphane]
cell inhibition ([1]; Mia PaCa 2, at the concentration of 5 μM): did not show any significant cell inhibition
IC50 ([1]; Table 5, MTS, combinations with fixed free Sulforaphane 5 μM): 92.2 µM
IC50 ([1]; Table 6, MTS, combinations with fixed free Sulforaphane 5 μM): 92.2 µM
IC50 ([2]; Table 10, MTS, LOR alone or in combination with free Sulforaphane): 99.6 µM
IC50 ([2]; Table 11, MTS, DES alone or in combination with free Sulforaphane): 99.6 µM
